The structures appear in SMILES notation.

The test system of assay [1] is HER-2/neu in 184B5/HER cells. Nature of the assay: immunoblot for HER-2/neu in 184B5/HER cells. The assay is classed as cell-based, human. The note with it: 25 μM ciglitazone or 20 μM 15-d-PGJ2, 24 hours. The text has this: The 184B5/HER cell line was obtained from a collaborator and was derived by stably transfecting 184B5 cells with a mutationally activated HER-2/neu oncogene; these cells form rapidly growing tumors when injected into athymic nude mice. The 184B5/HER cell line is described in Pierce, J. H., et al., Oncogene 6, 1189-1194 (1991). The BT-474 cell line is a human breast cancer adenocarcinoma cell line which overexpresses HER-2/neu, and was obtained from the American Type Culture Collection (Manassas, Va.) and bears accession number ATCC HBT-20.
184B5/HER cells were maintained in MEM-KBM mixed in a ratio of 1:1 (basal medium) containing epidermal growth factor (10 ng/ml), hydrocortisone (0.5 μg/ml), transferrin (10 μg/ml), gentamicin (5 μg/ml) and insulin (10 μg/ml) (growth medium). […] cells were grown to 60% confluence, trypsinized with 0.05% trypsin-2 mM ethylenediaminotetraacetic acid, and plated for experimental use. […]
184B5/HER cells were treated with vehicle (0.01% dimethylsulfoxide), 25 μM ciglitazone (Biomol, Plymouth Meeting, Pennsylvania) or 20 μM 15-d-PGJ2 (Biomol, Plymouth Meeting, Pennsylvania) for 24 hours. […] The protein concentration of the supernatant was measured by the method of Lowry, O. H., et al, J. Biol. Chem. 193, 265-275 (1951). […]

The next assay relates to HER-2/neu mRNA. Nature of the assay: Northern blotting for HER-2/neu mRNA in 184B5/HER cells. The note with it: 25 μM ciglitazone or 20 μM 15-d-PGJ2. The assay is classed as cell-based, human. As to the method:
Northern blotting was performed to evaluate whether PPARγ ligands decrease levels of HER-2/neu mRNA. 184B5/HER cells were treated with vehicle (0.01% dimethyl sulfoxide), 25 μM ciglitazone or 20 μM 15-d-PGJ2. Total cellular RNA was isolated from cell monolayers using an RNA isolation kit from Qiagen Inc. 10 μg of RNA was added to each lane. The 10 μg of total cellular RNA per lane were electrophoresed in a formaldehyde-containing 1.2% agarose gel and transferred to nylon-supported membranes. The blot was hybridized with probes that recognized HER-2/neu mRNA (Santa Cruz Biotechnology, Inc., Santa Cruz, Calif.) and 18S rRNA cDNA (Ambion, Inc., Austin, Tex.).

The next assay deals with HER-2/neu promoter. The assay can be described thus: transient transfection assay, human HER-2/neu promoter construct ligated to luciferase, 184B5/HER cells. In kind it is cell-based. The following applies: 0-25 μM, 24 hours, FIG. 1. As to the method:
To determine whether PPARγ ligands inhibit HER-2/neu promoter activity, a transient transfection assay was performed. 184B5/HER cells were transfected with 1.8 μg of a human HER-21neu promoter construct ligated to luciferase (-1571/--24) and 0.2 μg pSVβgal (Promega Corp., Madison Wis.). The HER-2/neu promoter (-1571/--24) is described in Hudson, L. G. et al, J. Biol. Chem. 265, 4389-4393 (3/90), the whole of which is incorporated herein by reference. The promoter constructs are described in Hudson, L. G., et al, Cell 62, 1165-1175(1990). 184B5/HER cells were seeded at a density of5×10^4 cells well in 6-well dishes and grown to 50-60% confluence. For each well, 2 μg of […] DNA were introduced into cells using 8 μg of LIPOFECTAMINE (Life Technologies, Inc., Grand Island, N.Y.) as per the manufacturer's instructions. Following transfection, the cells were treated with ciglitazone (0, 5, 10, 15, 20 and 25 μM) or 15d-PGJ2 (0, 5, 10, 15, 20 and 25 μM) for 24 hours.
The activities of luciferase and β-galactosidase were measured in cellular extract as described in Mestre, J. R. et al, Cancer Res. 57, 1081-1085 (1997).

For assay [2], the system named is EGFR in 184B5 mammary epithelial cells. The assay can be described thus: immunoblot for EGFR in 184B5 cells. In kind it is cell-based, human. The following applies: ciglitazone 5-30 μM or 15-d-PGJ2 5, 10 μM, 24 hours. The method, then: The cells used were 184B5 cells. The 184B5 cell line was obtained from a collaborator and is an immortalized but non-tumorigenic human breast epithelial cell line that was established from a reduction mammaplasty and is described in Stampler, M. R, et al, Proc. Natl. Acad. Sci. USA 82, 2394-2398 (1985).
184B5 cells were maintained in MEM-KBM mixed in a ratio of 1:1 (basal medium) containing epidermal growth factor (10 ng/ml), hydrocortisone (0.5 μg/ml), transferrin (10 μg/ml), gentamicin (5 μg/ml), and insulin (10 μg/ml) (growth medium). 184B5 cells were grown to 60% confluence, trypsinized with 0.05% trypsin-2 mM ethylenediaminotetraacetic acid and plated for experimental use.
184B5 cells were treated with vehicle (0.01% dimethyl sulfoxide), ciglitazone (5, 10, 20, 30 μM) or 15-d-PGJ2 (5, 10 μM) for 24 hours. Cell lysates were prepared in RIPA buffer. Lysates were sonicated for 20 seconds on ice and centrifuged at 10,000×g for 10 minutes to sediment the particulate material. The protein concentration of the supernatant was measured by the method of Lowry,. O. H., et al, J. Biol. Chem. 193, 265-275 (1951). Cellular lysate protein (100 μg/lane) was loaded onto a 10% SDS-polyacrylamide gel, electrophoresed and subsequently transferred onto a nitrocellulose membrane(Schleicher & Schuell Keene, N. H.). […]
Background: Immunoblotting shows a protein as a band on a membrane.

Another assay deals with EGFR promoter. Nature of the assay: transient transfection assay, human EGFR promoter construct ligated to luciferase, 184B5 cells. In kind it is cell-based. The note with it: 0-25 μM, 24 hours, FIG. 2. As to the method: To determine whether PPARγ ligands inhibit EGFR promoter activity, a transient transfection assay was performed, 184B5 cells were transfected with 1.8 μg of a human EGFR promoter construct ligated luciferase (-1100/-19) and 0.2 μg pSVβgal (Promega Corp., Madison, Wis.). The EGFR promoter is described in Hudson, L. G., et al, Cell 62, 1165-1175 (1990), the whole of which is incorporated herein by reference. 184B5 cells were seeded at a density of 5×10^4 cells/well in 6-well dishes and grown to 50-60% confluence. For each well 2 μg of […] DNA were introduced into cells using 8 μg of LIPOFECTAMINE (Life Technologies, Inc., Grand Island, N.Y.) as per the manufacturers instructions. Following transfection, the cells were treated with ciglitazone (0, 5, 10, 15, 20 and 25 μM) or 15-d-PGJ2 (0, 5, 10, 15, 20, and 25 μM) for 24 hours. The activities of luciferase and β-galactosidase were measured in cellular extract as described in Mestre, J. R, et al, Cancer Res. 57, 1081-1085 (1997). The results are shown in FIG. 2 where luciferase activity represents data that have been normalized to β-galactosidase activity (columns, means; bars, S. D., n=6; * means p<0.01 compared to control).

The target of assay [3] is human PPARγ binding domain. The note with it: scintillation proximity assay, radioligand [3H]BRL 49653; values reported in Henke et al, Collins et al, Cobb et al; cited from earlier work. Background: SPA uses beads or plates that emit light when radiolabelled molecules are held near them.
Assay [4] has as its system HER-2/neu positive breast cancer. Nature of the assay: Example I: adjuvant therapy after mastectomy. The assay is classed as in vivo, human. The following applies: patient, oral 5 mg/kg twice per day for five years after mastectomy.
Assay [5] shares this test system. The assay can be described thus: Example II: adjuvant therapy with PPARγ ligand and HERCEPTIN
The assay is classed as in vivo, human. The note with it: patient, oral 5 mg/kg twice daily for one year, with HERCEPTIN 250 mg IV loading then 10 weekly doses of 125 mg.

Assay [6] deals with HER-2/neu positive breast cancer metastasized to lung and liver. Nature of the assay: Example III: breast cancer metastasized to lung and liver. In kind it is in vivo, human. The note with it: patient, oral 5 mg/kg twice daily. The method, then: After three months, the PPARγ ligand administration is continued in combination regimen with Taxol® at a dose of 175 mg/m^2 administered intravenously every three weeks.

Assay [7] deals with HER-2/neu positive breast cancer metastasized to bone. The assay can be described thus: Example IV: breast cancer metastasized to bone. The note with it: patient after failure of prior chemotherapy, oral 5 mg/kg twice daily plus HERCEPTIN
The assay is classed as in vivo, human. As to the method: After 90 days, oral cyclophosphamide at a dose of 3 mg/kg/day and doxorubicin administered intravenously weekly at a dose of 20 mg/m^2, are added to the drug regimen.

Assay [8] has as its system HER-2/neu positive colon cancer. Nature of the assay: Example V: after resection of colon cancer. In kind it is in vivo, human. The following applies: patient, oral 5 mg/kg twice daily for five years after resection.
Assay [9] concerns non-small cell lung carcinoma where EGFR is overexpressed. Nature of the assay: Example VI: non-small cell lung carcinoma metastasized to liver. In kind it is in vivo, human. The note with it: patient, oral 5 mg/kg twice daily. The method, then:
After one month, PPARγ ligand administration is continued in combination with infusion of cisplatin every four weeks at 60 mg/m^2 for 12 more weeks.

Assay [10] has as its system head and neck carcinoma where EGFR is overexpressed. Nature of the assay: Example VII: head and neck carcinoma. The note with it: after the 12 weeks of CETUXIMAB and cisplatin, oral 5 mg/kg twice daily for 12 weeks. In kind it is in vivo, human. The method, then:
Concurrently cisplatin is infused every four weeks at 60 mg/m^2.

The subject of assay [11] is Stage IV EGFR positive breast cancer tumors. Nature of the assay: Example VIII: breast cancer with Stage IV EGFR positive tumors. The note with it: oral 5 mg/kg twice daily in combination with CETUXIMAB and Taxol. The assay is classed as in vivo, human.
For assay [12], the system named is EGFR positive breast cancer. Nature of the assay: Example IX: adjuvant therapy after mastectomy. The assay is classed as in vivo, human. The following applies: patient, oral 5 mg/kg twice daily for five years after mastectomy.

As to `CCCCC/C=C/C=C1/C(=O)C=C[C@@H]1C/C=C\CCCC(=O)O` [15-d-PGJ2, 15-deoxy-Δ12, 14-prostaglandin J2], in [1], the “amount of HER-2/neu (immunoblot)” value is given as “decreased the amount of HER-2/neu”. The “amounts of HER-2/neu mRNA (Northern blot)” value in the assay with HER-2/neu mRNA is reported as “decrease amounts of HER-2/neu mRNA”. In the assay with HER-2/neu promoter, the “HER-2/neu promoter activity (luciferase normalized to β-galactosidase)” value is on record as “inhibited HER-2 neu promoter activity in a dose-dependent fashion”. In addition, the “amounts of EGFR (immunoblot)” value in assay [2] was “decreased amounts of EGFR”. Besides, the “EGFR promoter activity (luciferase normalized to β-galactosidase)” value in the assay with EGFR promoter was “inhibited EGFR promoter activity in a dose-dependent fashion”.

Turning to `CCOC(=O)c1ccccc1N[C@@H](Cc1ccc(OCCc2nc(-c3ccccc3)oc2C)cc1)C(=O)O` [#64], in [3], the “pKi in binding assay using the human PPARγ binding domain” value (“pKi in binding assay” for short) is 8.52±0.03.

Consider `CCCOC(=O)c1ccccc1N[C@@H](Cc1ccc(OCCc2nc(-c3ccccc3)oc2C)cc1)C(=O)O` [#65], for which the “pKi in binding assay” value in assay [3] is on record as 8.62±0.03.

As to `Cc1oc(-c2ccccc2)nc1CCOc1ccc(C[C@H](Nc2ccccc2C(=O)OC(C)C)C(=O)O)cc1` [#66], in assay [3], the “pKi in binding assay” value was 9.01±0.00.

In the case of `CN(CCOc1ccc(CC2SC(=O)NC2=O)cc1)c1ccccn1` (stereo not drawn) [rosiglitazone], the “recurrence of breast cancer” value is reported as “Recurrence of breast cancer does not occur” in assay [4], “Recurrence of breast cancer does not occur” in assay [5] and “Recurrence of breast cancer dose not occur” in assay [12]. Also, the tumor burden entry was “reduced tumor burden” in [6]; “reduced tumor burden” in assay [7]; “reduced tumor burden” in assay [9]; “further reduced tumor burden” in assay [10]; “reduced tumor burden” in assay [11]. Moreover, the “recurrence of colon cancer” value in assay [8] is “Recurrence of colon cancer does not occur”. Moreover, the “pKi in binding assay” value in [3] is recorded as 7.33±0.02.

On to `CN(CCOc1ccc(C[C@H](Nc2ccccc2C(=O)c2ccccc2)C(=O)O)cc1)c1nc2ccccc2o1` [structure (II), 3-{4-[2-benzoxazol-2-ylmethylamino)ethoxy](phenyl}-(2S)-((2-benzoylphenyl)amino)propionic acid], for which the “recurrence of breast cancer” value in assay [4] was “recurrence of breast cancer does not occur”; in assay [5] it was “Recurrence of breast cancer does not occur”; in assay [12], “Recurrence of breast cancer dose not occur”. In addition, the tumor burden entry in assay [6] is recorded as “reduced tumor burden”; in [7] it was “reduced tumor burden”; in assay [9] it was “reduced tumor burden”; in assay [10], “further reduced tumor burden”. The “recurrence of colon cancer” value in [8] is listed as “Recurrence of colon cancer does not occur”. In addition, the “pKi in binding assay” value in assay [3] is given as 8.83±0.05.

(Values after patent US6291496A, “Treating cancers associated with overexpression of class I family of receptor tyrosine kinases” (priority 1999, dated 2001).)
